Where two headings read alike, the source gives them in different places.
Tests used:
HIV-1 RT = biological target: T1, HIV-1 RT (Human immunodeficiency virus type 1 group M subtype B, UniProt P04585); test: HIV-1 Reverse Transcriptase Assay (RNA-dependent DNA polymerase activity, SPA); assay type: biochemical
T1 construct: HIV-1 RT enzyme (final concentrations of 1-3 nM)
Method: HIV-1 Reverse Transcriptase Assay
RNA-dependent DNA polymerase activity was measured using a biotinylated primer oligonucleotide and tritiated dNTP substrate. Newly synthesized DNA was quantified by capturing the biotinylated primer molecules on streptavidin coated Scintillation Proximity Assay (SPA) beads (Amersham). The sequences of the polymerase assay substrate were: 18 nt DNA primer, 5′-Biotin/GTC CCT GTT CGG GCG CCA-3′; 47 nt RNA template, 5′-GGGUCUCUCUGGUUAGACCACUCUAGCAGUGGCGCCCGAACAGGGAC-3′. The biotinylated DNA primer was obtained from the Integrated DNA Technologies Inc. and the RNA template was synthesized by Dharmacon. The DNA polymerase assay (final volume 50 μl) contained 32 nM biotinylated DNA primer, 64 nM RNA substrate, dGTP, dCTP, dTTP (each at 5 μM), 103 nM [^3H]-dATP (specific activity=[…]), in 45 mM Tris-HCl, pH 8.0, 45 mM NaCl, 2.7 mM Mg(CH3COO)2, 0.045% Triton X-100 w/v, 0.9 mM EDTA. The reations contained 5 ul of serial compound dilutions in 100% DMSO for IC50 determination and the final concentrations of DMSO were 10%. Reactions were initiated by the addition of 30 μl of the HIV-1 RT enzyme (final concentrations of 1-3 nM). Protein concentrations were adjusted to provide linear product formation for at least 30 min of incubation. After incubation at 30° C. for 30 min, the reaction was quenched by addition of 50 μl of 200 mM EDTA (pH 8.0) and 2 mg/ml SA-PVT SPA beads (Amersham, RPNQ0009, reconstituted in 20 mM Tris-HCl, pH 8.0, 100 mM EDTA and 1% BSA). The beads were left to settle overnight and the SPA signals were counted in a 96-well top counter-NXT (Packard). IC50 values were obtained by sigmoidal regression analysis using GraphPad.

[1] = tested on: HXB2-strain of HIV-1 in MT4 cells; test: Antiviral Assay (protection of HIV-1-infected MT4 cells from cell death, MTT); assay type: cell-based; conditions: Human immunodeficiency virus 1, 120 h, MT4 cells infected with HXB2-strain of HIV-1, 5 days
Method: Anti-HIV-1 antiviral activity was assessed using an adaptation of the method of Pauwels et al. (Pauwels et al., J Virol Methods 1988 20:309-321). The method is based on the ability of compounds to protect HIV-1-infected T lymphoblastoid cells (MT4 cells) from cell-death mediated by the infection. The endpoint of the assay was calculated as the concentration of compound at which the cell viability of the culture was preserved by 50% (‘50% inhibitory concentration’, IC50). The cell viability of a culture was determined by the uptake of soluble, yellow 3-[4,5-dimethylthiazol-2-yl]-2,5-diphenyltetrazolium bromide (MTT) and its reduction to a purple insoluble formazan salt. After solubilization, spectrophotometric methods were employed to measure the amount of formazan product. […]
A fresh solution of 5 mg/mL MTT was prepared in 0.01 M phosphate buffered saline, pH 7.2 and 20 microliters added to each culture. […] When the formazan deposit was fully solubilized by further mixing, the absorbance (OD) of the cultures was measured at 540 nm and 690 nm wavelength (690 nm readings were used as blanks for artifacts between wells). The percent protection for each treated culture was then calculated from the equation: […]

[2] = HIV-1 RT enzyme 1-3 nM, 30° C., 30 min, read-out: HIV-1 RT IC50

| Compound | melting point | IC50 (HIV-1 RT; [2]) | IC50 [1] | IC50 (HIV-1 RT) |
| --- | --- | --- | --- | --- |
| N#Cc1cc(Cl)cc(Oc2c(Br)ccc(Cn3c(=O)[nH]c4ccccc43)c2F)c1 [Compound I-1, 3-[6-Bromo-2-fluoro-3-(2-oxo-2,3-dihydro-benzoimidazol-1-ylmethyl)-phenoxy]-5-chloro-benzonitrile] | 227 to 229 °C | 12.2 nM |  |  |
| N#Cc1cc(Cl)cc(Oc2c(Br)ccc(Cn3c(=O)[nH]c4ncccc43)c2F)c1 [Compound I-2, 3-[6-Bromo-2-fluoro-3-(2-oxo-2,3-dihydro-imidazo[4,5-b]pyridin-1-ylmethyl)-phenoxy]-5-chloro-benzonitrile] | 255.5 to 258.5 °C | 5.8 nM |  |  |
| N#Cc1cc(Cl)cc(Oc2c(Br)ccc(Cn3c(=O)[nH]c4c3ccc[n+]4[O-])c2F)c1 [Compound I-3] | 259 to 260 °C | 15.9 nM |  |  |
| N#Cc1cc(Cl)cc(Oc2c(Br)ccc(Cn3c(=O)[nH]c4cnccc43)c2F)c1 [Compound I-4, 3-[6-Bromo-2-fluoro-3-(2-oxo-2,3-dihydro-imidazo[4,5-c]pyridin-1-ylmethyl)-phenoxy]-5-chloro-benzonitrile] | 219 to 221.5 °C |  | 0.4 nM | 5 nM |
| N#Cc1cc(Cl)cc(Oc2c(Br)ccc(Cn3c(=O)[nH]c4c[n+]([O-])ccc43)c2F)c1 [Compound I-5] | 226.8 to 229 °C | 492 nM |  |  |
| N#Cc1cc(Cl)cc(Oc2c(Cl)ccc(Cn3c(=O)[nH]c4cnccc43)c2F)c1 [Compound I-6, 3-Chloro-5-[6-chloro-2-fluoro-3-(2-oxo-2,3-dihydro-imidazo[4,5-c]pyridin-1-ylmethyl)-phenoxy]-benzonitrile] | 232 to 233 °C | 7 nM |  |  |
| N#Cc1cc(Cl)cc(Oc2c(Br)ccc(Cn3c(=O)[nH]c4nnccc43)c2F)c1 [Compound I-7, 3-[6-Bromo-2-fluoro-3-(6-oxo-6,7-dihydro-imidazo[4,5-c]pyridazin-5-ylmethyl)-phenoxy]-5-chloro-benzonitrile] |  | 5.1 nM |  |  |
| N#Cc1cc(Cl)cc(Oc2c(Br)ccc(Cn3cn[nH]c3=O)c2F)c1 [Compound I-8, 3-[6-Bromo-2-fluoro-3-(5-oxo-1,5-dihydro-[1,2,4]triazol-4-ylmethyl)-phenoxy]-5-chloro-benzonitrile] | 107 °C | 45.1 nM |  |  |
| CCc1n[nH]c(=O)n1Cc1ccc(Br)c(Oc2cc(Cl)cc(C#N)c2)c1F [Compound I-9, 3-[6-Bromo-3-(3-ethyl-5-oxo-1,5-dihydro-[1,2,4]triazol-4-ylmethyl)-2-fluoro-phenoxy]-5-chloro-benzonitrile] | 264 to 265 °C | 19.7 nM |  |  |
| Cc1n[nH]c(=O)n1Cc1ccc(Br)c(Oc2cc(Cl)cc(C#N)c2)c1F [Compound I-10, 3-[6-Bromo-2-fluoro-3-(3-methyl-5-oxo-1,5-dihydro-[1,2,4]triazol4-ylmethyl)-phenoxy]-5-chloro-benzonitrile] | 129.9 to 131 °C | 54.6 nM |  |  |
| N#Cc1cc(Cl)cc(Oc2c(Br)ccc(CNC(=O)Nc3ccccc3F)c2F)c1 [Compound I-11] | 215.5 to 215.8 °C | 33.1 nM |  |  |
| N#Cc1cc(Cl)cc(Oc2c(Br)ccc(COC(=O)Nc3ccc(Cl)cc3Cl)c2F)c1 [Compound I-12] | 138.3 to 139.9 °C | 68.2 nM |  |  |

— patent US7947709B2, “Non-nucleoside reverse transcriptase inhibitors” (Roche Palo Alto LLC, priority 2007, dated 2011)
